Source: US20040018984A1, “Methods for preventing adhesion formation using protease inhibitors” (priority 2002, published 2004)

Assays:
[1] = test system: Syrian hamsters; experiment: Scoring of adhesion formation after uterine denudation surgery in hamsters; assay type: in vivo, hamster; settings: for preventative effect, reducing adhesion formation: subsequent experiments in the hamster model with enantiomerically enriched preparations
Method: (§1) Mature female Syrian hamsters (SLC, Shizuoka, Japan), 6 weeks of age, weighing 85 to 90 g were maintained in an environmentally controlled room with a 12-hour light, 12-hour dark cycle. Hamsters were anesthetized with intraperitoneal sodium pentobarbital (50 mg/kg). Surgical technique was performed using a modified procedure of Nagler et al. (Am. J. Obstet. Gynecol. 180:558-63, 1999). An abdominal midline incision was made, and the right uterus was grasped and denuded of serosa over half the length of the uterine body until punctate hemorrhage occurred, using a swab. In the […], 1 ml of 10 μM Suc-Val-Pro-Phe^P(OPh)2 in saline was injected into the abdomen. Then, the abdomen was closed in two layers with silk sutures. In the placebo group, the same 1 ml amount of saline was administered as in the chymase inhibitor group.
(§2) Three days after the surgery, the animals (placebo group, n=13; chymase group, n=13) were anesthetized with sodium pentobarbital (50 mgikg, i.p.), and then the uterus was removed for the measurement of chymase activity. Two weeks after the surgery, the animals (placebo group, n=15; chymase group, n=16) were anesthetized with sodium pentobarbital (50 mg/kg, i.p.), and then adhesions were assessed.
The adhesions were graded blindly according to a modified classification of Hulka et al. (Fertil Steril. 30:661-665, 1978): Score 0, no adhesions; Score 1, mild adhesions; Score 2, localized moderate adhesions; Score 3, moderate and wide adhesions; Score 4, severe adhesions, and impossible to separate. Chymase activities were evaluated in a parametric test using Fisher's Protected Least Significant Difference. Adhesion scores were evaluated in a nonparametric test, and statistically analyzed by the Mann-Whitney's U test. Values are given as means ±standard error (S.E.). Differences were considered statistically significant at P<0.05.

[2] = cited from earlier work
[3] = biological target: T1, chymase (Homo sapiens, UniProt P23946); experiment: Chymase activity in vascular tissues after administration during the operation; assay type: in vivo; settings: for 4 weeks, 10 μM administration only during the operation
T1 construct: from tissue
T1 sequence (P23946 22-247): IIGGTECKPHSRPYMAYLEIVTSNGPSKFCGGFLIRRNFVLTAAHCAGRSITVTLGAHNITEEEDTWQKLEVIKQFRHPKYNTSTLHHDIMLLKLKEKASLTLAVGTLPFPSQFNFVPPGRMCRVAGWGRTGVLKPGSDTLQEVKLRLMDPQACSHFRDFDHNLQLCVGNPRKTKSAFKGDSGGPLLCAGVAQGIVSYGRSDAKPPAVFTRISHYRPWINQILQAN
Excerpt: Pursuant to the method of the present invention, at least one protease inhibitor is maintained in an effective concentration at the site of potential adhesion formation for a period of time sufficient to permit substantial re-epithelialization. The protease inhibitor compound is typically administered over the perioperative interval, which for purposes of the present invention may include a period of time prior to surgery, through surgery itself, and also post-completion of surgery. The term of administration of administration may vary, but typically should be effected from the time of surgery for at least 24 to 48 hours after completion of surgical procedures. In general, the protease inhibitory compound may be administered, with or without sustained release vehicles or formulations, from the time of surgery for a period ranging between about 24 hours and about 14 days (a period that generally will include complete healing). Preferably the compound may be administered as above from the time of surgery for a period ranging between about 24 hours and 7 days, and more preferably ranging between about 24 hours and 3 days. […] Effective dosages, regimens, and routes of administration for other protease inhibitors may be readily determined by one of skill in the art using the teachings provided herein.

[4] = test system: chymotrypsin and chymotrypsin-like enzymes; settings: cited from earlier work
[5] = test system: chymase; experiment: Uterus chymase activity after uterine denudation surgery in hamsters; assay type: in vivo, hamster; settings: three days after the operation; 1 ml of 10 μM in saline injected into the abdomen; mean ± S.E.; P=0.06 vs placebo (0.88±0.09)
Method: as §1, with “In the placebo group, the same 1 ml amount of saline was administered as in the chymase inhibitor group.” left out
as §2, with “assessed. […]” for “assessed.”
Chymase activity was measured as described previously (Jin et al., J. Hypertens. 16:657-664, 1998). […] Protein concentration was measured with the bicinchoninic acid protein assay reagent (Pierce Chemical, Rockford, Ill.) using bovine serum albumin as a standard. […]

[6] = biological target: bovine thrombin (Bos taurus, UniProt P00735); settings: cited from earlier work
[7] = biological target: human leukocyte elastase (Homo sapiens, UniProt P08246); settings: cited from earlier work
Chain of human leukocyte elastase (P08246 30-267): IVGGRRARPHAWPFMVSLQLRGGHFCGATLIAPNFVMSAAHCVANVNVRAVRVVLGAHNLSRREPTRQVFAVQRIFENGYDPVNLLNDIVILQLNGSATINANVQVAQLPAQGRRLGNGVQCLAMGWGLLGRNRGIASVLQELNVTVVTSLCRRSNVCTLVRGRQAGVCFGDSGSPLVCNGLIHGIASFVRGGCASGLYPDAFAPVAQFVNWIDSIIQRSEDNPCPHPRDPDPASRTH

CC(C)[C@H](NC(=O)CCC(=O)O)C(=O)N1CCC[C@H]1C(=O)NC(Cc1ccccc1)P(=O)(Oc1ccccc1)Oc1ccccc1 (stereo partly drawn) [Suc-Val-Pro-Phe^P(OPh)2-A]
preventative effect, reducing adhesion formation [1]: significant preventative effect

CC(C)[C@H](NC(=O)CCC(=O)O)C(=O)N1CCC[C@H]1C(=O)NC(Cc1ccccc1)P(=O)(Oc1ccccc1)Oc1ccccc1 (stereo partly drawn) [Suc-Val-Pro-Phe^P(OPh)2-I]
preventative effect, reducing adhesion formation [1]: not

CC(C)[C@H](NC(=O)CCC(=O)O)C(=O)N1CCC[C@H]1C(=O)NC(Cc1ccccc1)P(=O)(Oc1ccccc1)Oc1ccccc1 (stereo partly drawn) [Suc-Val-Pro-Phe^P(OPh)2]
half-life in human plasma [2]: approximately 20 hr | chymase activity in vascular tissues [3]: significantly suppressed | inhibitor potency for chymotrypsin and chymotrypsin-like enzymes [4]: relatively potent inhibitor | uterus chymase activity [5]: 0.66±0.06 mU/mg protein | scores of adhesion formation ([1]; two weeks after surgery, 1 ml of 10 μM in saline into the abdomen, score 0-4, mean ± S.E., placebo 2.07±0.34, difference significant): 0.88±0.20 | highest score of adhesion formation found ([1]; two weeks after surgery, score 0-4, placebo scores between 0 and 4): ≤ 3

CC(C)(C)OC(=O)N[C@H](Cc1ccccc1)C(=O)N1CCC[C@H]1C(=O)NC(c1ccc(C(=N)N)cc1)P(=O)(Oc1ccccc1)Oc1ccccc1.Cl (stereo partly drawn) [diphenyl Boc-D-Phe-Pro-amino(4-amidinophenyl)methanephosphonate hydrochloride]
inhibitor potency for bovine thrombin [6]: potent phosphonate inhibitor

Boc-Val-Pro-Val^P(OPh)2
inhibitor potency for human leukocyte elastase [7]: relatively potent inhibitors

MeO-Suc-Ala-Ala-Pro-Val^P(OPh)2
inhibitor potency for human leukocyte elastase [7]: relatively potent inhibitors
